Assay results: PubChem BioAssay (NCI)
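Test compounds were applied to cells in 96-well plates for 48 hours at 5 doses. Abbreviation: GI50, concentration required for 50% inhibition of growth. TGI is the concentration that stops growth completely.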

Legend:
Test in all cases: NCI tumour cell line growth inhibition, 48 h
A549 NSCLC = test system: A549 NSCLC
HOP-92 NSCLC = test system: HOP-92 NSCLC
KM12 colon = test system: KM12 colon
NCI-H226 lung = test system: NCI-H226 lung
OVCAR-4 ovarian = test system: OVCAR-4 ovarian
SNB-75 CNS = test system: SNB-75 CNS
SW-620 colon = test system: SW-620 colon
UACC-257 melanoma = test system: UACC-257 melanoma
PC-3 prostate = test system: PC-3 prostate

O=C(O)[C@H](NS(=O)(=O)c1ccc([N+](=O)[O-])cc1)c1ccccc1
TGI (A549 NSCLC): > 100 µM
TGI (HOP-92 NSCLC): > 100 µM
TGI (KM12 colon): > 100 µM
TGI (NCI-H226 lung): > 100 µM
TGI (OVCAR-4 ovarian): > 100 µM
TGI (SNB-75 CNS): > 100 µM
TGI (SW-620 colon): > 100 µM
TGI (UACC-257 melanoma): > 100 µM

COc1cc(/C=C(\C#N)c2ccccc2)cc(OC)c1
TGI (A549 NSCLC): > 100 µM
TGI (KM12 colon): > 100 µM
TGI (NCI-H226 lung): > 100 µM
TGI (OVCAR-4 ovarian): > 100 µM
TGI (SW-620 colon): > 100 µM
TGI (UACC-257 melanoma): 51 µM

O=C1CSC(/C(=N/Nc2ccccc2)c2nc3ccccc3[nH]2)=N1
TGI (A549 NSCLC): > 100 µM
TGI (HOP-92 NSCLC): 49.7 µM
TGI (KM12 colon): > 100 µM
TGI (NCI-H226 lung): 59.7 µM
TGI (OVCAR-4 ovarian): > 100 µM
TGI (SNB-75 CNS): 97.6 µM
TGI (SW-620 colon): > 100 µM
TGI (UACC-257 melanoma): > 100 µM

O=C(NCO)NCOCn1c(=O)n(CO)c(=O)n(CO)c1=O
TGI (A549 NSCLC): > 100 µM
TGI (KM12 colon): > 62.8 µM
TGI (NCI-H226 lung): > 100 µM
TGI (OVCAR-4 ovarian): > 77 µM
TGI (SNB-75 CNS): > 100 µM
TGI (SW-620 colon): 56.4 µM
TGI (UACC-257 melanoma): 99.4 µM

O=C1OC2CCCC[C@@H]2C2C[C@]34CCCCC3[C@@H](C(=O)O4)C12 (stereo partly specified)
TGI (A549 NSCLC): > 100 µM
TGI (HOP-92 NSCLC): > 100 µM
TGI (KM12 colon): > 100 µM
TGI (NCI-H226 lung): > 100 µM
TGI (OVCAR-4 ovarian): > 100 µM
TGI (SNB-75 CNS): > 100 µM
TGI (SW-620 colon): > 100 µM
TGI (UACC-257 melanoma): > 100 µM

O=C1CCCC[C@H]1[C@H]1CCC[C@@H]([C@H]2CCCCC2=O)C1=O
TGI (A549 NSCLC): > 100 µM
TGI (HOP-92 NSCLC): > 100 µM
TGI (KM12 colon): > 100 µM
TGI (NCI-H226 lung): > 100 µM
TGI (OVCAR-4 ovarian): > 100 µM
TGI (SNB-75 CNS): > 100 µM
TGI (SW-620 colon): > 100 µM
TGI (UACC-257 melanoma): > 100 µM

N#CC1CC2(C1)OCCS2 (stereo unspecified)
TGI (A549 NSCLC): > 100 µM
TGI (KM12 colon): > 100 µM
TGI (NCI-H226 lung): > 100 µM
TGI (OVCAR-4 ovarian): > 100 µM
TGI (SNB-75 CNS): > 100 µM
TGI (SW-620 colon): > 100 µM
TGI (UACC-257 melanoma): > 100 µM

S=C1OC2CCCC[C@H]2O1 (stereo partly specified)
TGI (A549 NSCLC): > 100 µM
TGI (HOP-92 NSCLC): > 100 µM
TGI (KM12 colon): > 100 µM
TGI (NCI-H226 lung): > 100 µM
TGI (OVCAR-4 ovarian): > 100 µM
TGI (SNB-75 CNS): > 100 µM
TGI (SW-620 colon): > 100 µM
TGI (UACC-257 melanoma): > 100 µM

CC(=O)C(=CN1CCN(C(=O)c2ccco2)C1=S)C(C)=O
GI50 (A549 NSCLC): 11.2 µM
TGI (A549 NSCLC): 32.7 µM
GI50 (HOP-92 NSCLC): 11.7 µM
TGI (HOP-92 NSCLC): 46 µM
GI50 (KM12 colon): 2.83 µM
TGI (KM12 colon): 9.72 µM
GI50 (OVCAR-4 ovarian): 10.6 µM
TGI (OVCAR-4 ovarian): 32.7 µM
GI50 (PC-3 prostate): 4.83 µM
TGI (PC-3 prostate): 46.6 µM
GI50 (SNB-75 CNS): 9.02 µM
TGI (SNB-75 CNS): 71.4 µM
GI50 (SW-620 colon): 14.6 µM
TGI (SW-620 colon): 31.3 µM
GI50 (UACC-257 melanoma): 2.51 µM
TGI (UACC-257 melanoma): 12.1 µM

CCOC(=O)NC(=O)c1cn(CCCOC(=O)CCCCCCCCCCC(=O)OCCCn2cc(C(=O)NC(=O)OCC)c(=O)[nH]c2=O)c(=O)[nH]c1=O
TGI (A549 NSCLC): > 100 µM
TGI (HOP-92 NSCLC): > 100 µM
TGI (KM12 colon): > 100 µM
TGI (NCI-H226 lung): > 100 µM
TGI (OVCAR-4 ovarian): > 100 µM
TGI (SW-620 colon): > 100 µM
TGI (UACC-257 melanoma): > 100 µM

O=C1NC2OC(C(O)CO)C(O)C2O1 (stereo unspecified)
TGI (A549 NSCLC): > 100 µM
TGI (HOP-92 NSCLC): > 100 µM
TGI (KM12 colon): > 100 µM
TGI (OVCAR-4 ovarian): > 100 µM
TGI (SNB-75 CNS): > 100 µM
TGI (SW-620 colon): > 100 µM
TGI (UACC-257 melanoma): > 100 µM

Cc1ncc(CCCN(C)C)cc1Nc1ncc2c(n1)-c1ccc(C(F)(F)F)cc1NC(=S)C2
GI50 (A549 NSCLC): 0.0104 µM
TGI (A549 NSCLC): 11.6 µM
GI50 (HOP-92 NSCLC): 0.0216 µM
TGI (HOP-92 NSCLC): 0.519 µM
GI50 (KM12 colon): < 0.0134 µM
TGI (KM12 colon): 10.9 µM
GI50 (NCI-H226 lung): 0.659 µM
TGI (NCI-H226 lung): 15.7 µM
GI50 (OVCAR-4 ovarian): 1.22 µM
TGI (OVCAR-4 ovarian): > 100 µM
GI50 (PC-3 prostate): < 0.0207 µM
TGI (PC-3 prostate): 24.5 µM
GI50 (SNB-75 CNS): 0.0173 µM
TGI (SNB-75 CNS): 0.975 µM
GI50 (SW-620 colon): < 0.01 µM
TGI (SW-620 colon): 12.3 µM

O=C1[C@@H]2C(c3ccccc3F)=NO[C@@H]2C(=O)N1c1ccc(Cc2ccc(N3C(=O)[C@H]4C(c5ccccc5F)=NO[C@H]4C3=O)cc2)cc1
TGI (A549 NSCLC): > 100 µM
TGI (HOP-92 NSCLC): > 100 µM
TGI (KM12 colon): > 100 µM
TGI (NCI-H226 lung): > 100 µM
TGI (OVCAR-4 ovarian): > 100 µM
TGI (SNB-75 CNS): > 100 µM
TGI (SW-620 colon): > 100 µM
TGI (UACC-257 melanoma): > 100 µM

N#Cc1cccnc1Cl
TGI (A549 NSCLC): > 100 µM
TGI (HOP-92 NSCLC): > 100 µM
TGI (KM12 colon): > 100 µM
TGI (NCI-H226 lung): > 100 µM
TGI (OVCAR-4 ovarian): > 100 µM
TGI (SNB-75 CNS): > 100 µM
TGI (SW-620 colon): > 100 µM
TGI (UACC-257 melanoma): > 100 µM

O=C1CC2CCCC23CC2(CCN13)OCCO2 (stereo unspecified)
TGI (A549 NSCLC): > 100 µM
TGI (HOP-92 NSCLC): > 100 µM
TGI (KM12 colon): > 100 µM
TGI (NCI-H226 lung): > 100 µM
TGI (OVCAR-4 ovarian): > 100 µM
TGI (SNB-75 CNS): > 100 µM
TGI (SW-620 colon): > 100 µM
TGI (UACC-257 melanoma): > 100 µM

NC(=O)NCc1c(C(N)=O)ncn1Cc1ccccc1
TGI (A549 NSCLC): > 100 µM
TGI (HOP-92 NSCLC): > 100 µM
TGI (OVCAR-4 ovarian): > 100 µM
TGI (SNB-75 CNS): > 100 µM
TGI (SW-620 colon): > 100 µM
TGI (UACC-257 melanoma): > 100 µM

Cn1c2ccccc2c(=O)c2ccc(Cl)cc21
TGI (A549 NSCLC): > 10 µM
TGI (HOP-92 NSCLC): > 10 µM
TGI (KM12 colon): > 10 µM
TGI (OVCAR-4 ovarian): > 10 µM
TGI (PC-3 prostate): > 10 µM
TGI (SNB-75 CNS): > 10 µM
TGI (SW-620 colon): > 10 µM

CCCSc1nc(COC(=O)NC)c(COC(=O)NC)n1C
TGI (A549 NSCLC): > 100 µM
TGI (HOP-92 NSCLC): > 100 µM
TGI (KM12 colon): > 100 µM
TGI (NCI-H226 lung): > 100 µM
TGI (OVCAR-4 ovarian): > 100 µM
TGI (SNB-75 CNS): > 100 µM
TGI (SW-620 colon): > 100 µM
TGI (UACC-257 melanoma): > 100 µM
